Reference: the METLIN SMRT retention time set (Domingo-Almenara et al. 2019)

Experiment: gradient 5% acetonitrile 3 min, to 50% in 2 min, to 85% in 15 min, held 3 min, 100 µL/min
Conditions: column: Zorbax Extend-C18 2.1 x 50 mm; eluents: water / acetonitrile, 0.1% formic acid
Summary of the method: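 Retention times of pure standards were taken from adduct peaks that were selected by computer and manually inspected. Over 3 months, mixtures of ~100 molecules were run by HPLC–quadrupole time-of-flight mass spectrometry in positive and negative ionization mode. The Zorbax Extend-C18 column (2.1 × 50 mm, 1.8 μm) ran at 100 μL/min in water and acetonitrile, each containing 0.1% formic acid, with 40 μL dead volume and 900 μL dwell volume.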

SMILES	RP-LC retention time [s]
CCCCOc1ccc(-c2cc3c(N4CCN(C)CC4)nccn3n2)cc1	754
CC(C(=O)O)c1ccc2c(c1)Cc1cccnc1O2 (centres undefined)	797
O=C(CN1C(=O)COc2ccc(C(=O)N3CCCC3)cc21)N1CCN(c2ccccn2)CC1	583
Cn1nc(C2CCCN(C(=O)c3ccoc3)C2)n(C2CCCC2)c1=O (centres undefined)	672
O=C(CSC1=Nc2ccccc2N=C(c2ccc(F)cc2)C1)NC1CCCC1	1130
Cc1cc(=O)n(CC(=O)Nc2ccccc2C)c(N2CCCC2)n1	620
CC(=O)NCc1csc(C2CCCN(C(=O)c3cc(F)cc(F)c3)C2)n1 (centres undefined)	684
COc1cc(NC(=O)N2CCC(n3c(C(F)(F)F)nc4cccnc43)CC2)cc(OC)c1	895
CCn1cc(C)c(C(=O)O)c1CC(=O)N1CCCc2ccccc21	811
NS(=O)(=O)c1ccc(CCNS(=O)(=O)c2cc(-c3ccno3)cs2)cc1	748
CC1CCCN(c2nc(C(=O)NC3CC3)cs2)C1 (centres undefined)	590
Cc1ccc(CNS(=O)(=O)c2ccc(-c3nnc(C)o3)o2)o1	737
CCCC(=O)Nc1ccc2c(c1)CN(C(=O)Cc1ccc(F)cc1)C(C(=O)N(C)C)C2 (centres undefined)	672
COc1ccc(-c2ccc3nc(N4CCC(C(=O)N(C)C)CC4)sc3n2)cc1	828
O=C(c1ccoc1)N1CCCC1c1nc(-c2cccc(C(F)(F)F)c2)no1 (centres undefined)	996
O=C(NCc1noc(C2CCCCC2)n1)c1coc(C2CC2)n1	889
CCc1nc(-c2csc(S(=O)(=O)N3CCCC(C(=O)N(C)c4ccc(C)c(C)c4)C3)c2)no1 (centres undefined)	1140
CCNS(=O)(=O)c1cc(-c2nc(C)cs2)n(C)c1C	792

SMILES	RP-LC retention time [s]
COc1ccc(OC)c(NS(=O)(=O)c2cccs2)c1	777
CCNc1nc(N(C)C)nc(-n2cnc(SC)n2)n1	784
O=C(Nc1ccc(-c2nnc3n2CCCC3)cc1)c1ccn[nH]1	595
CCCOCCOC(=O)C1=C(C)NC2=C(C(=O)C(C(=O)OC)C(C)C2)C1c1cccc(F)c1 (centres undefined)	965
COc1cc(NC(=O)Cn2nc3n(c2=O)CCCCC3)cc(OC)c1	704
COc1ccc(-c2cc(C(=O)Nc3ccc(Cl)cc3)nn2C2CCS(=O)(=O)C2)cc1 (centres undefined)	1020
Cc1noc(C)c1Cc1ccc(C(=O)NCC23CCCC=C2NC(=O)CC3)o1 (centres undefined)	705
CS(=O)(=O)N1CCC(C(=O)Nc2cccc(C(F)(F)F)c2)Oc2ccc(Cl)cc21 (centres undefined)	1060
COc1cccc(CNC2CCN(c3ccc(C(=O)NC4CC4)cn3)C2)c1O (centres undefined)	556
CC(=O)N1CCCC1c1nc2ccccc2n1CC(=O)N1CCC(C)CC1 (centres undefined)	567
O=C(CSc1nc(=O)[nH]c2c1CCCC2)N1CCCc2ccccc21	729
O=C(Cn1cnc2nc(N3CCCC(C(=O)NC4CC4)C3)sc2c1=O)NC1CCCCC1 (centres undefined)	652
CSc1cccc(NC(=O)N2CCC(C)(C(=O)NCc3ccc4c(c3)OCO4)CC2)c1	837
CCCN(C)S(=O)(=O)c1cc(-c2nc(C(C)(C)C)cs2)cs1	1330
CON(C)C(=O)C1CN(C(=O)COc2ccccc2F)C1	629
CC(O)(CNS(=O)(=O)c1cccnc1)c1ccco1 (centres undefined)	604
Cc1noc(-c2ccnc(-n3ncc(C(=O)NC4CCCCC4)c3C)c2)n1	892
COCC(C)(O)CNC(=O)c1cc(Cl)ccc1Cl (centres undefined)	657

The remaining lines, values ahead:

RP-LC retention time [s]	SMILES
641	CCCN(C)C(=O)c1ccc2nc(-c3ccc(C)cc3)cn2c1
786	Cc1ccc(CC(=O)NC(CC(C)C)C(=O)Nc2nc3ccccc3[nH]2)cc1 (centres undefined)
1200	Cc1ccc(-c2noc(CN3C(=O)COc4cc(Cl)ccc43)n2)cc1C
861	Cc1ccccc1CSc1nnc2c(S(=O)(=O)N3CCCC3)cccn12
1080	O=C(c1nnc(-c2ccc(S(=O)(=O)N3CCCCC3)cc2)o1)N1CCN(c2ccccc2)CC1
1070	Cc1ccc(-c2noc(Cc3nnc(-c4cccc(F)c4)o3)n2)cc1
951	COc1ccc(-c2csc3c(=O)n(Cc4ccc(F)cc4)cnc23)cc1OC
696	CCc1nc2c(c(=O)n1CC(=O)NCCC1=CCCCC1)CN(Cc1ccccc1)CC2
1250	COc1ccccc1-c1csc(NC(=O)c2sc(COc3cccc(C)c3)nc2C)n1
692	COCc1nc2cccnc2n1C1CCN(C(=O)NCCc2ccccc2)CC1
640	O=C(CCCc1c[nH]c2ccccc12)NC1CCN(c2ccc(=O)[nH]n2)C1 (centres undefined)
551	O=C(c1ccccn1)N1CCN(c2cc(-c3ccccc3)ncn2)CC1
957	Cc1ccccc1CNC(=O)Cn1c(C)cc(-c2nnc(-c3ccccc3)o2)c1C
1000	Cc1ccc(NC(=O)c2sc(-c3cn(C)c4ncccc34)nc2C)cc1F
1130	Cc1nn(CC(=O)NC2CCCCC2)c(=O)c2c(-n3cccc3)n(-c3ccc(Cl)cc3)nc12
789	Cc1noc(-c2ccc(OC3CN(C(=O)c4ccco4)C3)cc2)n1
764	O=C(Cn1c(=O)oc2ccc(C(=O)N3CCCC3)cc21)NCCCc1ccccc1
573	COc1cccc(CN2CCn3c(nnc3[C@@H]3C[C@@H](O)CN3Cc3cccnc3)C2)c1OC
766	CCc1nc2cc(N3CCC(C(=O)Nc4ccc(OC)c(OC)c4)CC3)cnc2nc1CC
989	CCOC(=O)c1nc(Nc2ccc(C(=O)OC(C)C)cc2)c2ccccc2n1
864	Cn1nccc1C(=O)Nc1ccc(OCc2nnc(-c3ccc(Cl)cc3)o2)cc1
1270	Cc1ccc(-c2noc(Cn3ncn4nc(-c5ccc(C)cc5C)cc4c3=O)n2)cc1
620	Cc1ccc2nc(C)c(NC(=O)c3ccccc3C(F)(F)F)c(=O)n2c1
884	CN1C(=O)c2ccccc2C(C(=O)Nc2ccc(F)cc2F)C1c1cccs1 (centres undefined)
682	Cc1ccc(CNc2cc(-n3ccnc3)ncn2)cc1C
1070	O=C(NCc1ccccc1)Nc1ccc(-c2nc(-c3ccccc3)co2)cc1
735	CCN(CC)C(=O)c1ccc(-c2nc3cc(NS(=O)(=O)c4ccc(Cl)cc4)ccc3n2C)cc1

RP-LC retention time [s]	SMILES
1180	COc1ccc(C2Cn3nnc(-c4nc(-c5ccc(C)cc5)no4)c3CO2)cc1 (centres undefined)
674	Cn1c(=O)c(N2CCCC(C(=O)N3CCN(Cc4ccc5c(c4)OCO5)CC3)C2)nc2ccccc21 (centres undefined)
913	O=C(CN1c2ccc(F)cc2-c2ccccc2S1(=O)=O)NCc1ccc2c(c1)OCO2
593	CC(C)NC(=O)c1c2c(nc3ccccc13)CCC2
705	CCNC(=O)c1nc(Nc2ccc(C)cc2)c2ccccc2n1
870	CCC(C)NC(=O)N1CCc2c(c(-c3nc(Cc4ccccc4)no3)nn2C)C1 (centres undefined)
790	Cc1noc(-c2nn(C)c3c2CN(C(=O)Nc2ccc(Cl)cc2)CC3)n1
697	CCOc1ccc(OCC)c(S(=O)(=O)Nc2ccc(-c3cn4ccc(C)nc4n3)cc2)c1
994	O=C(NCc1ccccc1F)c1cc(N2CCCC2)n2nccc2n1
703	O=C(CNC(=O)Cc1ccc(Cl)cc1)NCc1[nH]nc2ccccc12
1140	Cc1ccc(Cn2c(=O)c3sccc3n(Cc3nc(-c4ccc(C)cc4)no3)c2=O)cc1
657	COCCN(Cc1ccc(Cl)cc1)Cc1cc(=O)n2ccc(C)cc2n1
761	Cc1noc(-c2ccc(=O)n(CC(C)C)n2)n1
630	O=C(Nc1c(-c2ccccc2)nc2ccccn12)c1c(F)cccc1F
1190	Cc1ccc(N2CC(c3noc(-c4ccc(C)cc4C)n3)CC2=O)cc1 (centres undefined)
1150	O=S(=O)(Cc1ccccc1)N1CCc2nc(-c3ccc(Cl)cc3)ncc2C1
848	CCn1c(=O)oc2cc(S(=O)(=O)N3CCN(C(=O)C4(c5ccccc5)CC4)CC3)ccc21
802	c1ccc(CC2CCN(Cc3nc(-c4ccc(N5CCCCC5)nc4)no3)CC2)cc1
792	COc1ccc(N2C(=O)CCS2(=O)=O)cc1S(=O)(=O)NCCc1c[nH]c2ccccc12
1010	Cc1ccc(OCc2nn3c(-c4ccoc4C)nnc3s2)cc1
945	O=C(Cn1nc2c3cc(-c4ccc(F)cc4)nn3ccn2c1=O)Nc1ccccc1Br
1090	CCN(CC)c1nc2cc(C(=O)NCCC(C)C)ccc2c(=O)n1-c1ccccc1
919	CCc1nc2ccccc2c(=O)n1Cc1noc(-c2ccccc2OC)n1
624	CC(C)n1c(CCNC(=O)Cc2ccsc2)nc2cccnc21
791	COc1ccc(N2CCN(c3cc(SCC(=O)Nc4ccc(OC)c(OC)c4)ncn3)CC2)cc1
702	Cn1cnc(S(=O)(=O)N2CCCN(S(=O)(=O)c3cccc4nsnc34)CCNC(=O)CC2c2ccccc2)c1 (centres undefined)
